From patent US20250319172A1, “ANTICANCER VACCINE COMPOSITION COMPRISING HSP90 ANTIGENIC PEPTIDE AND USE THEREOF” (ASTON SCI. INC., priority 2021, published 2025)

System: HSP90 antigenic peptide-specific IFN-γ production in spleen cells
Test: IFN-γ ELISpot of splenocytes after test vaccination (Th1 immune response), Example 1
Type: in vivo, C57BL/6 mice
Conditions: antigen HSP90 peptide of SEQ ID NO: 1; s.c. three times every 10 days; splenocytes 10 days after last inoculation; FIG. 1A
Experimental: To analyze the efficacy of antigenic peptides selected from HSP90 (see Table 1) and various adjuvants and liposomes, test vaccines were prepared with the compositions in Table 2 and Table 3. In the case of G6 and G7 formulations, since a liposome is included in the formulations, the drug release rate is slowed, and in this regard, the amount of antigenic peptide was reduced to 20% when preparing the test vaccine. The prepared test vaccine G to G7 formulations were immunized using C57BL/B6 mice (female, 7 weeks old), 4 mice per group. […]
The test vaccine was inoculated with each vaccine formulation by subcutaneous injection three times every 10 days for 4 mice in each group, and splenocytes were isolated from the spleens of mice sacrificed 10 days after the last inoculation, the specific response to each HSP90 antigenic peptide was measured through the ELISpot method for IFN-γ or IL-10 stimulated by the HSP90 antigenic peptide (stimulant) of SEQ ID NO: 1 or SEQ ID NO: 2 according to the previously known method by Disis et al. (J Clin Oncol. 2009 Oct. 1; 27 (28): 4685-92).
If HSP90 antigenic peptide-specific IFN-γ production increased in spleen cells measured by the ELISpot method after test vaccination, the Th1 immune response was considered activated, and if the HSP90 antigenic peptide-specific IL-10 production increased, the Th2 immune response was considered activated.

LYVRRVFIMDNCEEL [SEQ ID NO: 1, HSP90 antigenic peptide, region p485-499 of HSP90]
HSP90-specific Th1 immune response (IFN-γ ELISpot): effectively induces HSP90-specific T cell immune response
